Measurements reported in publication PMC7948422, “Repurposing p97 inhibitors for chemical modulation of the bacterial ClpB–DnaK bichaperone system” (The Journal of Biological Chemistry, 2020).

How the values were obtained:
[1] = molecular target: T1, ClpB W543F (Escherichia coli, UniProt P63284, W543F); assay: Surface plasmon resonance, immobilized ClpB W543F; type: binding
T1 construct: made in house
Method: ClpB, DnaK, and the NBD of DnaK were extensively dialyzed against the SPR buffer (20-mM Hepes, pH 7.4, 150-mM NaCl, 20-mM MgCl2, 1-mM EDTA, 1-mM DTT). After dialysis, the protein concentration was determined by the Bradford method. The DBeQ–protein interactions were studied using a Biacore T200 instrument (GE Healthcare) at 25 °C. The proteins were diluted to 300 μg/ml in 10-mM sodium acetate buffer (pH 5 for ClpB DnaK or pH 4 for NBD) and immobilized on HC1500M sensor chips (Xantec) by standard amine coupling chemistry as described previously ([70]). A reference flow cell was created by ethyl(dimethylaminopropyl) carbodiimide/N-hydroxysuccinimide activation followed by quenching with 1 M ethanolamine (pH 9.0). Solvent correction curves were obtained at the beginning and end and after every 50 injection cycles by injecting varying DMSO concentrations (4.0, 4.4, 4.6, 4.8, 5.0, 5.2, 5.4, and 5.9% [v/v]). All experiments were performed using a flow rate of 30 μl/min.
Binding isotherms were obtained with the ligand diluted to different concentrations in the SPR running buffer HBSMTD (20-mM Hepes, pH 7.4, 140-mM NaCl, 20-mM MgCl2, 5% (v/v) DMSO, 0.005% (v/v) Tween-20). Replicate injections were performed for all samples, and a buffer-only injection was performed for every 12 injection cycles. To test the structural integrity of ClpB after immobilization on the sensor chips, we performed control titrations with ATPγS and adenosine. The dissociation constants determined from those experiments were ∼20 μM for ATPγS and ∼2 mM for adenosine. […] Moreover, the immobilized ClpB discriminated between a nucleotide analog and a nucleoside, which indicated an adequate structural integrity of ClpB on the sensor chips.
The resulting sensorgrams were analyzed using Biacore T200 Evaluation Software v3.0 according to the following procedure. Solvent correction curves were generated and applied to all data sets, and all sensorgrams were double-referenced by subtracting the most recent buffer blank injection. […]

[2] = molecular target: T2, DnaK–DnaJ–GrpE (KJE) (Escherichia coli, UniProt P0A6Y8); assay: Aggregate reactivation assay with KJE alone; type: biochemical
T2 construct: full-length E. coli DnaK (residues 1–638); made in house; host or cells: E. coli BL21(DE3) for DnaK
T2 sequence (P0A6Y8 whole entry, the tested form may be a part): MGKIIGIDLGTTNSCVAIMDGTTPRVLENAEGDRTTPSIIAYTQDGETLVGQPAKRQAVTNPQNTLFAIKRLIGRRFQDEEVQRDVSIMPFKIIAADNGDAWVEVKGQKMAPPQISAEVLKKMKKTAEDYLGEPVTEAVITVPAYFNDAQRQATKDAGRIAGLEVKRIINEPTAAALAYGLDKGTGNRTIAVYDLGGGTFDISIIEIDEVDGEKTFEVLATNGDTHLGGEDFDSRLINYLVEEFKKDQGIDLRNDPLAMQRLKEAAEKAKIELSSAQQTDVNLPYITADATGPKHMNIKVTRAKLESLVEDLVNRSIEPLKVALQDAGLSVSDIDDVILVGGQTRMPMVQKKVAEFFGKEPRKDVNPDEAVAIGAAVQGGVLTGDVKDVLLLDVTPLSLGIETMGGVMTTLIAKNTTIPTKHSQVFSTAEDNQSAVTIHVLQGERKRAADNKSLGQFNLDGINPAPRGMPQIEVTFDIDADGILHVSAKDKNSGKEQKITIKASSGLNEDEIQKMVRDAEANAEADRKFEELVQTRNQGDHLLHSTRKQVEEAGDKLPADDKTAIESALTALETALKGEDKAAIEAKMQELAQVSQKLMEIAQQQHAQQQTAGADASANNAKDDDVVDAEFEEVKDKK
Method: G6PDH was chemically denatured by mixing 5 μl of the G6PDH stock solution (441 μM) with 5 μl of buffer A (10 M urea, 16% glycerol, 40-mM DTT) preheated at 47 °C. The samples of G6PDH in buffer A were incubated for 5 min at 47 °C. Subsequently, 5 μl of denatured G6PDH was mixed with 95 μl of buffer B (50-mM Tris-HCl, pH 7.4, 20-mM Mg(OAc)2, 30-mM KCl, 1-mM EDTA, 1-mM β-mercaptoethanol) preheated at 47 °C to initiate protein refolding, which, under these conditions, is inefficient and leads to misfolding and aggregation of G6PDH ([69]). G6PDH aggregate production was arrested after 1 min (for refolding by KJE) or 15 min (for refolding by KJE with ClpB) by transferring into ice for 2 min. […] The plate was inserted into Synergy H1 plate reader (BioTek, Winooski, VT) with the chamber temperature at 30 °C, and the sample absorbance at 340 nm was measured after 10 min. The amount of NADPH produced was calculated based on the NADPH molar extinction coefficient, Ɛ340 = 6220 [M^−1 ⋅ cm^−1].
Firefly luciferase (220 μM) was diluted 300-fold in PBS buffer with 1 mg/ml bovine serum albumin and then incubated for 12 min at 45 °C. […] Luminescence was measured using Synergy H1 plate reader (BioTek, Winooski, VT).

T1 sequence (P63284 whole entry W543F, looked up): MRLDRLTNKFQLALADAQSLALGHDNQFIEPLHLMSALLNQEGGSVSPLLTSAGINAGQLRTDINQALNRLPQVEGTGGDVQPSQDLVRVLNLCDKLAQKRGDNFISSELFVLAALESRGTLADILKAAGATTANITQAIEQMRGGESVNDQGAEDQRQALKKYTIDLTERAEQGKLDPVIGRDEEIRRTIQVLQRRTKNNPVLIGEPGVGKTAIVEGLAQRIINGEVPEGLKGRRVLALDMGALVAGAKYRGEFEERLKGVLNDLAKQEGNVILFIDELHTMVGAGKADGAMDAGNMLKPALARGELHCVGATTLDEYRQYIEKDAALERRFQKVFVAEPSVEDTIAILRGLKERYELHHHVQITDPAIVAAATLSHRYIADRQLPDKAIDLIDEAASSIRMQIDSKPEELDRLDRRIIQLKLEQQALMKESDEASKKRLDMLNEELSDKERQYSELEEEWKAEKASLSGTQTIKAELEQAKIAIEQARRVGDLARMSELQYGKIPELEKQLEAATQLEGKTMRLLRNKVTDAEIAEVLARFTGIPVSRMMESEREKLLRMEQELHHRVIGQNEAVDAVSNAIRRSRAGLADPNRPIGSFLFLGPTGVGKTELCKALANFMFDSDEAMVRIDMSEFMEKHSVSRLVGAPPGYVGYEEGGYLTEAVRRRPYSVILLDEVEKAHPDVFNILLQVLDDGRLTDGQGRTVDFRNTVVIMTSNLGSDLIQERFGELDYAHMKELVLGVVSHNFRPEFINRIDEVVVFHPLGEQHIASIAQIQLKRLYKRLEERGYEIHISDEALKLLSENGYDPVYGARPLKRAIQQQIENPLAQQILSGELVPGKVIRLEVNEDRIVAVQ

c1ccc(CNc2nc(NCc3ccccc3)c3ccccc3n2)cc1 [DBeQ, N^2,N^4-dibenzylquinazoline-2,4-diamine]
Kd [1]: 59.1 ± 4.1 µM
Bmax (SPR signal at saturation), ClpB W543F ([1]; SPR): 1.07 ± 0.03
Hill coefficient, ClpB W543F ([1]; SPR): 2.4 ± 0.4
inhibition of DnaK chaperone activity in vitro [2]: inhibited
inhibition of ClpB-independent reactivation of aggregated luciferase ([2]; KJE alone, 20 min, 25 °C): inhibited
